Data published in patent publication US9803220B2, “Production of alkenes from 3-hydroxy-1-carboxylic acids via 3-sulfonyloxy-1-carboxylic acids” (Scientist of Fortune S.A., priority 2012, dated 2017).

Experiments:
[1] = Thermal conversion of 3-sulfonyloxybutyrate to propylene, headspace GC-FID; format: physicochemical; conditions: 50 mM substrate, 50 mM Tris-HCl pH 7.5, 0 to 90 h
Method: The thermal conversion assays containing, in a total volume of 0.5 mL, 50 mM 3-sulfonyloxybutyrate and 50 mM Tris-HCl pH 7.5, were incubated in 2 ml sealed glass vials (Interchim) at 37° C. and 65° C. with shaking. Propylene production at different incubation times (from 0 to 90 h) was analyzed as follows. One ml of the gaseous phase was collected and injected into a gas chromatograph Varian 430-GC equipped with FID detector. Nitrogene was used as carrier gas with a flow rate of 1.5 ml/min. Volatile compounds were separated on RT-Alumina Bond/Na2SO4 column (Restek) using an isothermal mode at 130° C. Gaseous product of thermal decomposition of disodium (R,S)-3-sulfonyloxybutyrate was identified by comparison with propylene standard (Sigma, Aldrich). Under these GC conditions, the retention time for propylene was 3.2 min. […] (FIGS. 6 and 7).

[2] = system: sulfotransferase CurM (PKS ST); assay: Sulfotransferase activity assay, sulfurylation of 3-hydroxybutyrate with PAPS, MS detection; format: biochemical, Moorea producens (formerly Lyngbya majuscala) 19L; conditions: 5 mM (R,S)-3-hydroxybutyrate, 5 mM PAPS, 5 mg/ml enzyme, 1.5 hours at 37° C., pH 7.5
Description: Sequence of sulfotransferase domain of polyketide synthase CurM (PKS ST) inferred from the genome of Moorea producens (formerly Lyngbya majuscala) 19L was generated by oligonucleotide concatenation to fit the codon usage of E. coli. A stretch of 6 histidine codons was inserted after the methionine initiation codon to provide an affinity tag for purification. The gene thus synthesized was cloned in a pET25b(+) expression vector (the vectors were constructed by GENEART AG). After transformation of the E. coli strain BL21 (DE3), the protein was produced according to the procedure described in Example 1 and sulfotransferase activity was assayed under the following conditions
5 mM (R,S)-3-hydroxybutyrate
5 mg/ml purified sulfotransferase (ST) CurM.
Control reaction was performed using the same reaction mixture without addition of the enzyme. The assays were incubated for 1.5 hours at 37° C. An aliquot of 200 μl of each assay was then removed, filtered through a 0.45 μm filter and the filtrated solution was transferred into a clean vial. MS analyses were performed in negative electrospray mode by direct injection of sample using PE SCIEX API 2000 quadrupole instrument. The presence of 3-sulfonyloxybutyrate was evaluated. […] The peak at m/z=182.8 was assigned to mono-deprotonated form of 3-sulfonyloxybutyrate, [M-H]^−. […]

propylene production by thermal conversion ([1]; 37° C.)	propylene production by thermal conversion ([1]; 37° C., listed as sulfonylbutyrate)	propylene production by thermal conversion ([1]; 65° C.)	transfer of the sulfate group from PAPS onto hydroxyl group (formation of 3-sulfonyloxybutyrate) [2]	SMILES
Significant production of propylene	already occurs	Significant production of propylene		CC(CC(=O)[O-])OS(=O)(=O)[O-].[Na+].[Na+] (racemic) [disodium (R,S)-3-sulfonyloxybutyrate, Disodium (R,S)-3-sulfonyloxybutyrate]
			catalyzes transfer of the sulfate group	CC(O)CC(=O)O (stereo not shown) [3-hydroxybutyrate]
